Where two headings read alike, the source gives them in different places.
Target: T1, human TRPM8 receptor (Homo sapiens, UniProt Q7Z2W7)
T1 construct: expressed in transfected cells; host or cells: HEK293, stably transfected, tetracycline-inducible expression
Assay: Assay on TRPM8 modulators: Ca2+-sensitive dye (Fluo-4) fluorescence in HEK293-TRPM8 test cells
Type: cell-based
Parameters: relative TRPM8 activation: concentration or dose not given beside the values
Conditions: for relative TRPM8 activation: HEK293 cells recombinantly expressing human TRPM8; for EC50: HEK293-TRPM8 cells
Source text: The starting point for cloning the human TRPM8 receptor is an LnCaP cDNA bank. This is commercially available (e.g. BioChain, Hayward, USA) or can be produced from the andro gene-sensitive human prostate adenocarcinoma cell line LnCaP (e.g. ATCC, CRL1740 or ECACC, 891 1021 1) using standard kits.
The coding TRPM8 sequence (see e.g. http://www. ncbi.nlm.nih.gov/entrez/viewer.fcgi?db=nuccore&id=109689694) can be PCR-amplified and cloned using standard methods. The human TRPM8 gene isolated in this way was used to produce the plasmid plnd_M8. Alternatively, the TRPM8 gene can also be produced synthetically.
A stably transfected HEK293 cell line was produced as a test cell system using human TRPM8 DNA. Preference was given to HEK293, which offers the possibility of inducing TRPM8 expression using tetracycline via the plasmid introduced.
A test similar to the test already described in the literature by Behrendt H. J. et al, Br. J. Pharmacol. 141, 2004, 737-745, is performed. The agonization or antagonization of the receptor can be quantified using a Ca^2+-sensitive dye (e.g. FURA, Fluo-4 etc.). Agonists alone cause an increase in the Ca^2+ signal; antagonists cause a reduction in the Ca^2+ signal in the presence of e.g. menthol (detected in each case using the Fluo-4 dye, which has different fluorescence properties due to Ca^2+ ions).
First, a fresh culture of transformed HEK cells is prepared in cell culture flasks in the usual way. The HEK293-TRPM8 test cells are detached from the cell culture flasks using trypsin and 40,000 cells/well are seeded with 100 μl medium in 96-well plates (Greiner #655948 poly-D-lysine-coated). To induce the TRPM8 receptor, tetracycline is added to the growth medium (DMEM/HG, 10% FCS tetracycline-free, 4 mM L-glutamine, 15 μg/ml blasticidin, 100 μg/ml hygromycin B, 1 μg/ml tetracycline).
On the following day, the cells are loaded with Fluo-4AM dye and the test is performed. Proceed as follows: Addition of 100 μl/well staining solution Ca-4 kit (RB 141, Molecular Devices) to each 100 μl medium (DMEM/HG, 10% FCS tetracycline-free, 4 mM L-glutamine, 15 μg/ml blasticidin, 100 μg/ml hygromycin B, 1 μg/ml tetracycline).
Incubation in incubator, 30 minutes/37° C./5% CO2, 30 minutes/RT.
Preparation of the test substances (different concentrations in 200 μl HBSS buffer), as well as positive controls (different concentrations of menthol, icilin or lonomycin in 200 μl HBSS buffer) and negative controls (only 200 μl HBSS buffer) Addition of the test substances in quantities of 50 μl/well and measurement of the fluorescence change (e.g. in the assay device FLIPR, Molecular Devices or NovoStar, BMG) at 485 nm excitation, 520 nm emission, and evaluation of the potency of the different substances/concentrations and determination of the ECG. e.g. in the FLIPR assay device, Molecular Devices or NovoStar, BMG) at 485 nm excitation, 520 nm emission, and evaluation of the potency of the various substances/concentrations and determination of the EC50 values.
The test substances are used in triplicates in concentrations of 0.1-200 μM in the assay. Normally, the compounds are kept ready in DMSO solutions and diluted down to a maximum DMSO concentration of 2% for the assay.
The activity of the active substances in relation to activation of the TRPM8 channel is determined using the assay described. This is done in a concentration-dependent manner. For each active substance, 6 to 10 concentrations are measured as standard. A mathematical method (4-parameter or 5-parameter logistic curve fitting) can be used to determine the EC50 value as the inflection point of the sigmoidal curve from the activity values determined. These are standard biochemical methods that are familiar to experts.

T1 sequence (Q7Z2W7 whole entry): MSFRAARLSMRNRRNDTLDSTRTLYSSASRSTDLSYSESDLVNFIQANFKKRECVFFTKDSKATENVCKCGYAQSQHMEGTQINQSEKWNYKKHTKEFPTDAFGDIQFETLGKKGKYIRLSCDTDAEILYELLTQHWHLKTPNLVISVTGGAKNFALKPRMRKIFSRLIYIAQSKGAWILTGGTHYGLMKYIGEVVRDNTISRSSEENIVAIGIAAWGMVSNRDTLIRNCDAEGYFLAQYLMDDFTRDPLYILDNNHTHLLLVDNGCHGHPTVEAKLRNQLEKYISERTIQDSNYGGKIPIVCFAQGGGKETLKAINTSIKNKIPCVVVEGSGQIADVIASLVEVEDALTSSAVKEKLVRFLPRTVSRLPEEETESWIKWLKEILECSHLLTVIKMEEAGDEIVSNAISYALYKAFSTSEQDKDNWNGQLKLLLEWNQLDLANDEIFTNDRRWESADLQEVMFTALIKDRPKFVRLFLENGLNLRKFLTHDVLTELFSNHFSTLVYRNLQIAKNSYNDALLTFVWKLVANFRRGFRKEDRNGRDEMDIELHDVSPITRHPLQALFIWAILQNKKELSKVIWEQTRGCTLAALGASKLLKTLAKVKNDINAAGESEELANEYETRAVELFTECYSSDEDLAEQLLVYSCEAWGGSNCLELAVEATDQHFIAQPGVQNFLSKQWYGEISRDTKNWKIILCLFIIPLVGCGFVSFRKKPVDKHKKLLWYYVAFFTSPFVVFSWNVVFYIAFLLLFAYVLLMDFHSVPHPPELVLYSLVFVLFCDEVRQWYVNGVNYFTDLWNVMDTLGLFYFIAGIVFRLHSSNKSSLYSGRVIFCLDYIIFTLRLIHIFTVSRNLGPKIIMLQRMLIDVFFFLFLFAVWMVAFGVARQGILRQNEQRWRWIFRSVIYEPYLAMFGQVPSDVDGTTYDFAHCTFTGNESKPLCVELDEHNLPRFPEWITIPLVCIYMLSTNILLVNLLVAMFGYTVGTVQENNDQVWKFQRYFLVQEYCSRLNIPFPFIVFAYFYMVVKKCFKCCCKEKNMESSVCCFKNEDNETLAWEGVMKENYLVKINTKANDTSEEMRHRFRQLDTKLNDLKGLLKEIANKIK

Row | SMILES | relative TRPM8 activation [%] | further results
1 | CC(Sc1nnc(-c2ccccc2)c(-c2ccccc2)n1)C(=O)NCc1cccs1 (stereo not drawn) [Compound B-48, 2-[(5,6-diphenyl-1,2,4-triazin-3-yl)sulfanyl]-N-(2-thienylmethyl) propanamide] | 4 | –
2 | CNC(=O)CSc1ncco1 [Compound A-59, N-methyl-2-oxazol-2-ylsulfanyl-acetamide] | 1 | –
3 | CCC(=O)Nc1nnc(-c2ccccc2)c(-c2ccccc2)n1 [Compound B-47, N-(5,6-diphenyl-1,2,4-triazin-3-yl)propanamide] | 4 | –
4 | CN(C(=O)CSc1nc(-c2ccccc2)c(-c2ccccc2)o1)C1CC1 [Compound A-27, N-cyclopropyl-2-(4,5-diphenyloxazol-2-yl)sulfanyl-N-methyl-acetamide] | 42 | EC50 (Table 6, read-out: TRPM8 EC50): 18000 nM; EC50 (Table 8, read-out: TRPM8 EC50): 18000 nM
5 | CC(C)CNC(=O)CSc1nc(-c2ccccc2)c(-c2ccccc2)o1 [Compound A-65, 2-(4,5-diphenyloxazol-2-yl)sulfanyl-N-isobutyl-acetamide] | −1 | –
6 | CCN(CC)C(=O)CSc1nc(-c2ccccc2)c(-c2ccccc2)o1 [Compound A-29, 2-(4,5-diphenyloxazol-2-yl)sulfanyl-N,N-diethyl-acetamide] | 36 | –
7 | CC(C)CNC(=O)C(C)Sc1nc(-c2ccccc2)c(-c2ccccc2)o1 (stereo not drawn) [Compound A-37, 2-(4,5-diphenyloxazol-2-yl)sulfanyl-N-isobutyl-propanamide] | 7 | –
8 | CNC(=O)CCSc1nc(-c2ccccc2)c(-c2ccccc2)o1 [Compound A-49, 3-(4,5-diphenyloxazol-2-yl)sulfanyl-N-methyl-propanamide] | 2 | –
9 | CNC(=O)CSc1cnc(-c2ccccc2)c(-c2ccccc2)n1 [Compound B-04, 2-(5,6-diphenylpyrazin-2-yl)sulfanyl-N-methyl-acetamide] | – | EC50 (TRPM8 activation, 6 to 10 concentrations, logistic curve fitting, read-out: EC50 value): ≤ 1000 nM; EC50 (Table 5, read-out: TRPM8 EC50): 370 nM; EC50 (Table 7, read-out: TRPM8 EC50): 370 nM
10 | CC1CCCCC1NC(=O)CSc1nc(-c2ccccc2)c(-c2ccccc2)o1 (stereo not drawn) [Compound A-42, 2-(4,5-diphenyloxazol-2-yl)sulfanyl-N-(2-methylcyclohexyl) acetamide] | 4 | –
11 | CN(C)C(=O)CCc1nc(-c2ccccc2)c(-c2ccccc2)o1 [Compound A-34, 3-(4,5-diphenyloxazol-2-yl)-N,N-dimethyl-propanamide] | 16 | –
12 | CC(Sc1nnc(-c2ccccc2)c(-c2ccccc2)n1)C(=O)NC1CCCC1 (stereo not drawn) [Compound B-22, N-cyclopentyl-2-[(5,6-diphenyl-1,2,4-triazin-3-yl)sulfanyl]propanamide] | 87 | –
13 | COCCNC(=O)CSc1nc(-c2ccccc2)c(-c2ccccc2)o1 [Compound A-53, 2-(4,5-diphenyloxazol-2-yl)sulfanyl-N-(2-methoxyethyl) acetamide] | 1 | –
14 | CN(C)CCOc1nnc(-c2ccccc2)c(-c2ccccc2)n1 [Compound B-42, 2-[(5,6-diphenyl-1,2,4-triazin-3-yl)oxy]-N,N-dimethyl-ethanamine] | 8 | –
15 | CSc1nnc(-c2ccccc2)c(-c2ccccc2)n1 [Compound B-64, 3-methylsulfanyl-5,6-diphenyl-1,2,4-triazine] | −3 | –
16 | CC(Sc1nnc(-c2ccccc2)c(-c2ccccc2)n1)C(=O)NCC1CCCO1 (stereo not drawn) [Compound B-32, 2-[(5,6-diphenyl-1,2,4-triazin-3-yl)sulfanyl]-N-(tetrahydrofuran-2-ylmethyl)propanamide] | 37 | –
17 | CNC(=O)C(C)S(=O)(=O)c1nc(-c2ccccc2)c(-c2ccccc2)o1 (stereo not drawn) [Compound A-28, 2-(4,5-diphenyloxazol-2-yl)sulfonyl-N-methyl-propanamide] | 40 | –
